In ChEMBL document CHEMBL4396936 (Bioorg Med Chem Lett, 2019):

Experiments:
[1] = molecular target: T1, Indoleamine 2,3-dioxygenase 1 (Homo sapiens, UniProt P14902); assay: Binding affinity to recombinant ferrous state of IDO1 (unknown origin) expressed in Escherichia coli assessed as dissociation constant incubated for 30 mins by UV-Visible spectrophotometric method
Target sequence in this assay (P14902 whole entry): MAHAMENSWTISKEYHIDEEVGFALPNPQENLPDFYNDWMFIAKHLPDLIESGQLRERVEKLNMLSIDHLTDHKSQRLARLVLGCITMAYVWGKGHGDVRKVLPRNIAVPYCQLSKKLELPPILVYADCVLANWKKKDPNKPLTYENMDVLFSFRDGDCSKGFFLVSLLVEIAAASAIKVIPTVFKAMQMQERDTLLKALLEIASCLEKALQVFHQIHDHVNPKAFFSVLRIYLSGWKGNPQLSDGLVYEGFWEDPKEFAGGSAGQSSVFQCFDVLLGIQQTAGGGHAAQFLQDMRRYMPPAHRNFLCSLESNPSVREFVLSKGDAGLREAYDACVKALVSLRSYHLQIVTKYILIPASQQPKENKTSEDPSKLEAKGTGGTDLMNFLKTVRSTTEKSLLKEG

[2] = molecular target: T1, Indoleamine 2,3-dioxygenase 1; assay: Inhibition of recombinant IDO1 (unknown origin) expressed in Escherichia coli at 10 uM incubated for 30 mins by methylene blue dye based UV-Visible spectrophotometric method relative to control
Target sequence in this assay (P14902 whole entry, looked up): as the sequence (P14902 whole entry) above

[3] = molecular target: Indoleamine 2,3-dioxygenase 1 (Homo sapiens, UniProt P14902, C129Y); assay: Binding affinity to recombinant ferrous state of IDO1 C129Y mutant (unknown origin) expressed in Escherichia coli assessed as dissociation constant incubated for 30 mins by UV-Visible spectrophotometric method
[4] = tested on: Indoleamine 2,3-dioxygenase 1 (Homo sapiens), P14902 [C129Y]; assay: Inhibition of recombinant IDO1 C129Y mutant (unknown origin) expressed in Escherichia coli at 10 uM incubated for 30 mins by methylene blue dye based UV-Visible spectrophotometric method relative to control
[5] = molecular target: T1, Indoleamine 2,3-dioxygenase 1; assay: Binding affinity to recombinant ferric state of IDO1 (unknown origin) expressed in Escherichia coli assessed as dissociation constant incubated for 30 mins by UV-Visible spectrophotometric method
Target sequence in this assay (P14902 whole entry): as above

Chain of Indoleamine 2,3-dioxygenase 1 (Homo sapiens), P14902 [C129Y] (P14902 whole entry C129Y): as the sequence (P14902 whole entry) above, with C129Y counted along it
Chain of Indoleamine 2,3-dioxygenase 1 (Homo sapiens, UniProt P14902, C129Y) (P14902 whole entry C129Y): as the sequence (P14902 whole entry) above, with C129Y counted along it

Row | SMILES | Kd [1] | inhibition [2] | Kd [3] | inhibition [4] | Kd [5]
1 | OC(Cc1ccccc1)c1cccc2[nH]ncc12 (racemic) | 7.9 µM | 13% | 66 µM | 14% | 31 µM
2 | CCc1cc(C(O)Cc2ccccc2)c2cn[nH]c2c1 (racemic) | 0.74 µM | 70% | 44 µM | 18% | 1.1 µM
3 | C[Si](C)(C)c1cccc2[nH]ncc12 | 43 µM | 7.2% | – | – | 150 µM
4 | OC(Cc1ccccc1)c1cc(-c2ccccc2)cc2[nH]ncc12 (racemic) | 53 µM | 4% | – | 14% | –
5 | C#Cc1cc(C(O)Cc2ccccc2)c2cn[nH]c2c1 (racemic) | 1.3 µM | 32% | 94 µM | 12% | 7.4 µM
6 | Cc1cc([Si](C)(C)C)c2cn[nH]c2c1 | 1.7 µM | 50% | – | – | 2.5 µM
7 | OC(Cc1ccccc1)c1cc(C2CC2)cc2[nH]ncc12 (racemic) | 1.2 µM | 62% | 28 µM | 20% | –
8 | c1ccc2[nH]ncc2c1 | – | 1% | – | – | –
9 | OC(Cc1ccccc1)c1cc(Br)cc2[nH]ncc12 (racemic) | 0.14 µM | 90% | 2.2 µM | 23% | 0.6 µM
10 | Cc1cc(C(O)Cc2ccccc2)c2cn[nH]c2c1 (racemic) | 0.47 µM | 76% | 27 µM | 18% | 1.2 µM
